Measurements reported in patent publication US11065266B2, “Method of treating melanoma using an inhibitor of an atypical protein kinase C” (UNIVERSITY OF SOUTH FLORIDA, priority 2016, dated 2021).

Assays:
[1] = test system: malignant melanoma cells (SK-MEL-2 and MeWo); test: Viable cell counts, malignant cell lines taken together; type: cell-based; conditions: Homo sapiens; for IC50: from dose curves of cell proliferation, read-out: half maximal inhibitory concentration (IC50)
Procedure: Dose curves (inhibitor concentrations vs cell population after 3 days) for ICA-1, ACPD, DND and ζ-Stat were obtained for all 3 cell lines as follows. PCS-200-013, SK-MEL-2 and MeWo cells (4×10^4) were cultured in 25 cm^2 flasks and treated with either equal volume of sterile water (vehicle control). Cells were treated every 24 h during 3 day incubation period and cells were then lifted using Trypsin-EDTA solution (1.5 mL/flask) and neutralized with the equal volume of media. Subsequently, live cells were counted using the Scepter, an automated cell counter from Millipore (Billerica, Mass.). The cell growth inhibition for all inhibitors for the two malignant cell lines (SK-MEL-2 and MeWo) were quantified by counting the viable cells at 24 hour intervals. Cell counts obtained from Scepter was compared with the counts obtained from the Cellometer Vision from Nexcelom Bioscience (Lawrence, Mass.).
Dose curves for ACPD and DNDA were obtained to investigate the effect on cell proliferation of normal and malignant cell lines over a wide range of concentrations. […] ACPD decreased proliferation by 20% for 1.5 μM (p≤0.01), 48% for 2.5 μM (p≤0.01) and 51% for 3.5 μM (p≤0.001)(FIG. 5B). DNDA decreased by 17% for 500 nM (p≤0.01), 24% for 1.5 μM(p≤0.01), 52%) for 2.5 µM (p≤0.01) and 57 for 3.5 μM (p≤0.01)(FIG. 5C) in SK-MEL-2 cells. ACPD decreased proliferation by 28% for 500 nM (p≤0.01), 41% for 1.5 μM (p≤0.01), 54% for 2.5 µM (p≤0. 01) and 58% for 3.5 μM (p≤0.01) (FIG. 5D). DNDA decreased proliferation by 37% for 500 nM (p≤0.01), 41% for 1.5 μM (p≤0.01), 46% for 2.5 μM (p≤0.01) and 48% for 3.5 μM (p≤0.01) (FIG. 5E) in the MeWo cells.
To test the effects of ζ-Stat on malignant cells approximately 4×10^4 of cells were cultured in 25 cm2 flasks and treated with either equal volume of sterile water (control) or ζ-Stat (0.1-10 μM). Additional doses of sterile water or inhibitor were supplied every 24 h during 3 day incubation period. Subsequently, cells were lifted and counted. Cells were quantified by counting the viable cells at 24 hour intervals. […] N=3 experiments were performed for each cell line and mean±SD are plotted.

[2] = test system: MeWo cells; test: Western blot of protein levels; type: cell-based, human; set-up: concentration or dose not given beside the values; conditions: vs respective control
Procedure: Approximately 2×10^5 cells from PCS-200-013 and SK-MEL-2 cell lines were plated in T25 flasks until they become 70% confluent. Confluent cells were semi-synchronized by contact inhibition and serum starvation for 48 hrs. Subsequently, cells were incubated with serum and atypical inhibitors. The cells were removed at specific times and were placed in ice to terminate the incubation. Cells were washed at least two times with ice cold DPBS. Cells were then scrapped, re-suspended and sonicated in 500 μL of homogenization buffer (50 mM HEPES—pH 7.5), 150 mM NaCl, 0.1% Triton X, 1 mM EDTA (ethylenediaminetetraacetic acid), 2 mM EGTA [glycol-bis (2-aminoethylether)-N, N, N′,N′-tetraacetic acid], 0.1 mM orthovanadate, 1 mM NaF, 2 mM PMSF (phenylmethylsulphonylfluoride), 1 mM DTT (dithiothreitol) and 0.15 U/mL aprotinin. Cell suspensions was then sonicated and centrifuged at 100,000 g for 30 minutes. The protein concentrations was determined using Bradford method. Subsequently, approximately 800 μg of proteins were immunoprecipitated with the antibody against desired protein. In some cases cell lysates were suspended with anti-HFS-1 antibody, rocking overnight at 4° C. Agarose beds were added after 24 hrs. Then the complex of cell lysate-anti HSF-1 antibody-agarose beads was rocked at 4° C. for 2 hrs. After washing the beads, approximately […] the sample loading buffer was added to dissolve all the protein on the beads. Proteins were then separated on sodium dodecyl sulfate polyacrylamide gel electrophoresis (SDS-PAGE) and transblotted followed by immunoblotting with anti-PKC-ζ or anti-PKC-ι or anti-HSF-1 antibody or phosphospecific antibodies. Immunoreactive bands were visualized with enhanced chemiluminescence.
Western blots (WB) were performed to investigate the effect of ACPD and DNDA on the expression of aPKCs on malignant melanoma. […] DNDA decreased the levels of PKC-ι by 52%, pPKC-ι by 33% in SK-MEL-2 cells and by 27% of PKC-ι and pPKC-ι by 20% in MeWo cells.
DNDA reduced the levels of PKC-ζ by 33%, pPKC-ζ by only 17% in SK-MEL-2 cells and by 60% of PKC-ζ and pPKC-ζ by 29% in MeWo cells. All values (percent) were calculated compared to their respective control in Western blot. B-actin was used as the internal control to ensure that equal amounts of proteins were loaded in each lane in SDS-PAGE.

[3] = test system: MeWo cells; test: Western blot of protein levels; type: cell-based, human

IC50 [1]	SMILES	reduction of PKC-ζ level [2]	reduction of PKC-ι level [2]	reduction of pPKC-ζ level [2]	reduction of pPKC-ι level [2]	decrease of Bcl-2 levels [3]	decrease of CD44 [3]	decrease of PARP levels [3]	decrease of Vimentin levels [3]	decrease of β-catenin [3]	increase of Caspase-3 levels [3]	increase of E-cadherin levels [3]	increase of NF-KB p65 levels [3]	increase of cleaved PARP levels [3]	increase of PARP levels [3]	cytotoxicity at 2.5 µM ([1]; 2.5 μM, read-out: inhibition of cell viability according to cell counts)	cytotoxicity at 5 µM ([1]; 5 μM, read-out: inhibition of cell viability according to cell counts)	cytotoxicity at 10 µM ([1]; 10 μM, read-out: inhibition of cell viability according to cell counts)
~2500 nM	CC(=O)C1=C(O)CCC1=O [ACPD, 2-acetyl-1,3-cyclopentanedione]	42%	46%	23%	26%	25%	34%	24%	38%	16%	17%	35%	69%	18%	–	–	–	–
~2500 nM	Nc1c(S(=O)(=O)O)cc2cc(S(=O)(=O)O)ccc2c1N [DNDA, 3,4-diamino-2,7-naphthalenedisulfonic acid]	60%	27%	29%	20%	32%	43%	–	45%	21%	39%	29%	89%	10%	9%	–	–	–
–	O=S(=O)(O)c1cc(O)c2c(S(=O)(=O)O)cc(S(=O)(=O)O)cc2c1 [ζ-Stat, 8-hydroxy-1,3,6-naphthalenetrisulfonic acid]	–	–	–	–	–	–	–	–	–	–	–	–	–	–	20 to 25%	~50%	~50%
